Measurements as given in patent US11926619B2, “Certain pladienolide compounds and methods of use” (EISAI R&D MANAGEMENT CO., LTD., priority 2018, dated 2024).

Key:
[1] = biological target: T1, SF3b complexes (Homo sapiens, UniProt O75533+Q7RTV0); experiment: Scintillation proximity assay (SPA) with [3H]-labelled pladienolide probe; type: binding; settings: wt SF3B1, read-out: SPA (wt SF3B1 cells) IC50
T1 construct: endogenous in cells
Protocol: Batch immobilization of anti-SF3B1 antibody (MBL) to anti-mouse PVT SPA scintillation beads (PerkinElmer) was prepared as follows: for every 2.5 mg of nuclear extracts, 5 μg anti-SF3B1 antibody and 1.5 mg of beads were mixed in 150 μl PBS. The antibody-bead mixture was incubated for 30 min at RT and centrifuged at 18,000 g for 5 min. 150 μl PBS was used to resuspend every 1.5 mg antibody-bead mixture. The beads were suspended and added to the prepared nuclear extracts. The slurry was incubated for 2 h at 4° C. with gentle mixing. The beads were then collected by centrifuging at 18,000 g for 5 min, and washed twice with PBS+0.1% Triton X-100. After a final centrifugation step, every 1.5 mg of beads was suspended with 150 μl of PBS. The SF3b complexes were tested for [^3H]-labelled pladienolide probe binding ([^3H]-PB), synthesized as previously described (Kotake et al., 2007). 100 μL binding reactions were prepared with 50 μl bead slurry and by adding varying concentrations of PB or PB—OH, and after 30 min pre-incubation, 2.5 nM [^3H]—PB was added. The mixture was incubated for 30 min, and luminescence signals were read using a MicroBeta2 Plate Counter (PerkinElmer). Prism 6 (Graphpad) was used for non-linear regression curve fitting of the data.

[2] = system: WiDr-R cells (colon cancer cells; chemically-induced SF3B1 R1074H mutant); experiment: Cell viability assay (CellTiter-Glo, 72 hr), resistant WiDr-R cells (counter-screen); type: cell-based; settings: WiDr-R cells (SF3B1 R1074H mutation, resistant); read-out: WiDr-R GI50
Outline: (§1)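 Cells at 2000/well were exposed to 9 compound concentrations (0.1% DMSO) in duplicate or triplicate for 72 hr at 37 °C. ATP was read by CellTiter-Glo against a time-zero plate and DMSO control growth. Percent growth/viability was plotted against concentration to give Emax; negative values indicate lethality.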

[3] = system: WiDr cells (colon cancer cells; wildtype SF3B1); experiment: Cell viability assay (CellTiter-Glo, 72 hr), WiDr cells; type: cell-based; settings: Homo sapiens; WiDr cells (wildtype SF3B1); read-out: WiDr GI50
Outline: as §1

[4] = system: Panc 05.04 cells (pancreatic cancer cells; Q699H and K700E mutations in SF3B1); experiment: Cell viability assay (CellTiter-Glo, 72 hr), Panc 05.04 cells; type: cell-based; settings: Panc 05.04 cells (mutant SF3B1); for Emax: maximum achievable response in tested dose range, negative value = cellular lethality, read-out: Panc 05.04 (mt SF3B1 cells) Emax (%); for GI50: read-out: Panc 05.04 (mt SF3B1 cells), GI50
Outline: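 Panc 05.04 cells treated 72 hr at 37 °C with 9 compound concentrations (0.1% DMSO), duplicate or triplicate. ATP read by CellTiter-Glo; growth inhibition/viability calculated against a time-zero plate and DMSO control growth. Emax is the maximal response over the tested range, negative values meaning lethality.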

| SMILES | IC50 [1] | GI50 [2] | GI50 [3] | Emax [4] | GI50 [4] |
| --- | --- | --- | --- | --- | --- |
| C/C(=C\C=C\[C@H](C)c1nccc(C)n1)[C@H]1OC(=O)C[C@H](O)CC[C@@](C)(O)[C@@H](OC(=O)N2CCN(C3CCCCCC3)CC2)/C=C/[C@@H]1C | 9.7 nM | > 1000 nM | 125 nM | -76.7% | 101 nM |
| CC(=O)O[C@H]1/C=C/[C@H](C)[C@@H](/C(C)=C/C=C/[C@@H](C)CO)OC(=O)C[C@H](O)CC[C@@]1(C)O | 326 nM | > 10000 nM | 4040 nM | 47.5% | 6920 nM |
| C/C(=C\C=C\[C@@H](C)COC(=O)N1[C@H](C)CC[C@H]1C)[C@H]1OC(=O)C[C@H](O)CC[C@@](C)(O)[C@@H](OC(=O)N2CCN(C)CC2)/C=C/[C@@H]1C | 2.77 nM | > 1000 nM | 1.03 nM | -68.1% | 1.12 nM |
| C/C(=C\C=C\C(C)c1cccc(N2CCCC2)n1)[C@H]1OC(=O)C[C@H](O)CC[C@@](C)(O)[C@@H](OC(=O)N2CCN(C3CCCCCC3)CC2)/C=C/[C@@H]1C (stereo partly shown) | 21.9 nM | > 1000 nM | 320 nM | -95.3% | 122 nM |
| COC[C@@H]1CCCN1C(=O)OC[C@H](C)/C=C/C=C(\C)[C@H]1OC(=O)C[C@H](O)CC[C@@](C)(O)[C@@H](OC(=O)N2CCN(C3CCCCCC3)CC2)/C=C/[C@@H]1C | 16.8 nM | > 1000 nM | 29.1 nM | -89.1% | 11.9 nM |
| C/C(=C\C=C\[C@@H](C)c1ccccn1)[C@H]1OC(=O)C[C@H](O)CC[C@@](C)(O)[C@@H](OC(=O)N2CCN(C3CCC3)CC2)/C=C/[C@@H]1C | 7.23 nM | > 1000 nM | 36.7 nM | -83.6% | 38.9 nM |
| CC(=O)O[C@H]1/C=C/[C@H](C)[C@@H](/C(C)=C/C=C/[C@@H](C)COC(=O)N(C)C)OC(=O)C[C@H](O)CC[C@@]1(C)O | 18 nM | > 10000 nM | 46.7 nM | -91.2% | 74.4 nM |
| CC[C@H](O)[C@@H](C)NC(=O)OC[C@H](C)/C=C/C=C(\C)[C@H]1OC(=O)C[C@H](O)CC[C@@](C)(O)[C@@H](OC(C)=O)/C=C/[C@@H]1C | 53.4 nM | > 10000 nM | 555 nM | -92.8% | 327 nM |
| C/C(=C\C=C\C(C)c1ncccn1)[C@H]1OC(=O)C[C@H](O)CC[C@@](C)(O)[C@@H](OC(=O)N2CCN(C)CC2)/C=C/[C@@H]1C (stereo partly shown) | 38.4 nM | > 1000 nM | 60.1 nM | -22.2% | 155 nM |
| CC(=O)O[C@H]1/C=C/[C@H](C)[C@@H](/C(C)=C/C=C/[C@H](C)c2ccccn2)OC(=O)C[C@H](O)CC[C@@]1(C)O | 235 nM | > 10000 nM | 205 nM | 1.96% | 546 nM |
| C/C(=C\C=C\[C@@H](C)c1ccccn1)[C@H]1OC(=O)C[C@H](O)CC[C@@](C)(O)[C@@H](OC(=O)N2CCN(C(C)(C)C)CC2)/C=C/[C@@H]1C | 13.1 nM | > 1000 nM | 76 nM | -78.1% | 66 nM |
| CCN(CC)C(=O)OC[C@H](C)/C=C/C=C(\C)[C@H]1OC(=O)C[C@H](O)CC[C@@](C)(O)[C@@H](OC(C)=O)/C=C/[C@@H]1C | 2.4 nM | > 10000 nM | 21.2 nM | -92.2% | 25 nM |
| C/C(=C\C=C\C(C)c1ccncn1)[C@H]1OC(=O)C[C@H](O)CC[C@@](C)(O)[C@@H](OC(=O)N2CCN(C3CCCCCC3)CC2)/C=C/[C@@H]1C (stereo partly shown) | 504 nM | > 1000 nM | 532 nM | -26.6% | 956 nM |
| C/C(=C\C=C\C(C)c1cccnn1)[C@H]1OC(=O)C[C@H](O)CC[C@@](C)(O)[C@@H](OC(=O)N2CCN(C3CCCCCC3)CC2)/C=C/[C@@H]1C (stereo partly shown) | 3.38 nM | > 1000 nM | 15.1 nM | -94.7% | 22 nM |
